In PubChem BioAssay (NCI):
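Step 1: Grow cells in 96-well plates. Step 2: Expose to compound for 48 hours at 5 concentrations. Step 3: Interpolate endpoints linearly; if unreached, use highest concentration. At the GI50, growth is halved. TGI: total growth inhibition.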

What was measured:
Experiment in all cases: DTP human tumour cell line panel, 48 h
[1] = tested on: SNB-75 CNS
[2] = tested on: HL-60(TB) leukemia
[3] = tested on: ACHN renal
[4] = tested on: A549 NSCLC
[5] = tested on: MDA-MB-435
[6] = tested on: IGROV1 ovarian
[7] = tested on: EKVX NSCLC
[8] = tested on: HOP-92 NSCLC
[9] = tested on: U251 CNS
[10] = tested on: OVCAR-8 ovarian
[11] = tested on: HCT-116 colon
[12] = tested on: PC-3 prostate
[13] = tested on: RPMI-8226 leukemia
[14] = tested on: UACC-257 melanoma
[15] = tested on: OVCAR-5 ovarian
[16] = tested on: SK-MEL-28 melanoma
[17] = tested on: RXF 393 renal
[18] = tested on: DU-145 prostate
[19] = tested on: SR leukemia
[20] = tested on: UO-31 renal
[21] = tested on: OVCAR-4 ovarian
[22] = tested on: SK-OV-3 ovarian
[23] = tested on: MCF7 breast
[24] = tested on: HT29 colon
[25] = tested on: SK-MEL-5 melanoma
[26] = tested on: OVCAR-3 ovarian
[27] = tested on: COLO 205 colon
[28] = tested on: 786-0 renal
[29] = tested on: BT-549 breast
[30] = tested on: MDA-MB-231 breast
[31] = tested on: M14 melanoma
[32] = tested on: LOX IMVI melanoma
[33] = tested on: MALME-3M melanoma
[34] = tested on: HOP-62 NSCLC
[35] = tested on: HS 578T breast
[36] = tested on: HCT-15 colon
[37] = tested on: CAKI-1 renal
[38] = tested on: SF-539 CNS
[39] = tested on: NCI-H522 lung
[40] = tested on: NCI-H226 lung
[41] = tested on: SN12C renal
[42] = tested on: SF-295 CNS
[43] = tested on: TK-10 renal
[44] = tested on: MOLT-4 leukemia
[45] = tested on: KM12 colon
[46] = tested on: SK-MEL-2 melanoma
[47] = tested on: SF-268 CNS
[48] = tested on: SNB-19 CNS

OC1CCN(CCCOc2c3ccc(Cl)cc3nc3c2oc2ccccc23)CC1
GI50 [1]: 1330 nM | TGI [1]: 2700 nM | GI50 [2]: 1580 nM | TGI [2]: 4.8 µM | GI50 [3]: 491 nM | TGI [3]: 11.7 µM | GI50 [4]: 1230 nM | TGI [4]: 23.2 µM | GI50 [5]: 1230 nM | TGI [5]: 2570 nM | GI50 [6]: 1970 nM | TGI [6]: 12.5 µM | GI50 [7]: 2390 nM | TGI [7]: 8.46 µM | GI50 [8]: 1040 nM | TGI [8]: 3.79 µM | GI50 [9]: 1090 nM | TGI [9]: 7.4 µM | GI50 [10]: 1130 nM | TGI [10]: 13.5 µM | GI50 [11]: 390 nM | TGI [11]: 2110 nM | GI50 [12]: 1490 nM | TGI [12]: 4.07 µM | GI50 [13]: 1590 nM | TGI [13]: 4.8 µM | GI50 [14]: 1720 nM | TGI [14]: 3.49 µM | GI50 [15]: 1970 nM | TGI [15]: 6.85 µM | GI50 [16]: 1690 nM | TGI [16]: 3.17 µM | GI50 [17]: 1280 nM | TGI [17]: 3.36 µM | GI50 [18]: 1570 nM | TGI [18]: > 100 µM | GI50 [19]: 458 nM | TGI [19]: 3.23 µM | GI50 [20]: 517 nM | TGI [20]: 3.1 µM | GI50 [21]: 1390 nM | TGI [21]: 5.09 µM | GI50 [22]: 2420 nM | TGI [22]: 10.5 µM | GI50 [23]: 968 nM | TGI [23]: 4.3 µM | GI50 [24]: 610 nM | TGI [24]: 2270 nM | GI50 [25]: 1790 nM | TGI [25]: 3.25 µM | GI50 [26]: 2200 nM | TGI [26]: > 100 µM | GI50 [27]: 661 nM | TGI [27]: 2150 nM | GI50 [28]: 1300 nM | TGI [28]: 4.86 µM | GI50 [29]: 2490 nM | TGI [29]: 7.24 µM | GI50 [30]: 1570 nM | TGI [30]: 6.13 µM | GI50 [31]: 1340 nM | TGI [31]: 3.09 µM | GI50 [32]: 343 nM | TGI [32]: 1450 nM | GI50 [33]: 1490 nM | TGI [33]: 3.1 µM | GI50 [34]: 1860 nM | TGI [34]: 11.4 µM | GI50 [35]: 2170 nM | TGI [35]: 8.01 µM | GI50 [36]: 780 nM | TGI [36]: > 100 µM | GI50 [37]: 525 nM | TGI [37]: 3.35 µM | GI50 [38]: 1320 nM | TGI [38]: 2640 nM | GI50 [39]: 1280 nM | TGI [39]: 3.2 µM | GI50 [40]: 1990 nM | TGI [40]: 5.63 µM | GI50 [41]: 839 nM | TGI [41]: > 100 µM | GI50 [42]: 2080 nM | TGI [42]: 11.8 µM | GI50 [43]: 2780 nM | TGI [43]: 7.65 µM | GI50 [44]: 391 nM | TGI [44]: 3.2 µM | GI50 [45]: 1480 nM | TGI [45]: > 100 µM | GI50 [46]: 1760 nM | TGI [46]: 3.34 µM | GI50 [47]: 1490 nM | TGI [47]: > 100 µM | GI50 [48]: 2280 nM | TGI [48]: 32.6 µM
